Earlier results as cited in US20100215737A1, “COMBINATION PHARMACEUTICAL COMPOSITIONS” (priority 2007, published 2010).

How the values were obtained:
[1] = molecular target: T1, PgP (Homo sapiens, UniProt P08183); settings: dose-depended effect
T1 construct: PgP is found in the luminal plasma membrane of brain capillary endothelial cells (BCEC); host or cells: blood brain barrier / primary cultured BCEC

[2] = tested on: subventricular zone and dentate gyrus cells; settings: young adult rats
[3] = marketed formulations
[4] = relative to small intestine
[5] = tested on: CYP; settings: concentration of up to 1 μM
[6] = human, in vivo
[7] = tested on: middle cerebral artery occlusion; settings: single iv bolus 0.1 mg/kg immediately or 3 h after occlusion
[8] = tested on: middle cerebral artery occlusion (MCO); settings: 0.32 to 1.0 mg/kg iv immediately after occlusion
[9] = tested on: transient global ischemia; settings: 1 mg/kg iv immediately after reperfusion
[10] = tested on: global ischemic insult; settings: mice
[11] = tested on: MCO
[12] = molecular target: T1, PgP
[13] = tested on: permanent and transient focal ischemia; settings: >0.1 mg/kg iv immediately after onset of ischemia
[14] = tested on: ischemic damage in the rat cortex; settings: in vivo
[15] = tested on: mdr-1a knockout and wild type mice; settings: mdr-1a knockout vs wild type mice, oral
[16] = tested on: transient focal ischemia; settings: in vivo
[17] = tested on: APP holoprotein and mRNA; settings: 50 microM
[18] = tested on: peripheral nerve damage; settings: after peripheral nerve damage
[19] = tested on: endothelial nitric oxide synthase (eNOS); settings: mouse, in vivo

T1 sequence (P08183 whole entry): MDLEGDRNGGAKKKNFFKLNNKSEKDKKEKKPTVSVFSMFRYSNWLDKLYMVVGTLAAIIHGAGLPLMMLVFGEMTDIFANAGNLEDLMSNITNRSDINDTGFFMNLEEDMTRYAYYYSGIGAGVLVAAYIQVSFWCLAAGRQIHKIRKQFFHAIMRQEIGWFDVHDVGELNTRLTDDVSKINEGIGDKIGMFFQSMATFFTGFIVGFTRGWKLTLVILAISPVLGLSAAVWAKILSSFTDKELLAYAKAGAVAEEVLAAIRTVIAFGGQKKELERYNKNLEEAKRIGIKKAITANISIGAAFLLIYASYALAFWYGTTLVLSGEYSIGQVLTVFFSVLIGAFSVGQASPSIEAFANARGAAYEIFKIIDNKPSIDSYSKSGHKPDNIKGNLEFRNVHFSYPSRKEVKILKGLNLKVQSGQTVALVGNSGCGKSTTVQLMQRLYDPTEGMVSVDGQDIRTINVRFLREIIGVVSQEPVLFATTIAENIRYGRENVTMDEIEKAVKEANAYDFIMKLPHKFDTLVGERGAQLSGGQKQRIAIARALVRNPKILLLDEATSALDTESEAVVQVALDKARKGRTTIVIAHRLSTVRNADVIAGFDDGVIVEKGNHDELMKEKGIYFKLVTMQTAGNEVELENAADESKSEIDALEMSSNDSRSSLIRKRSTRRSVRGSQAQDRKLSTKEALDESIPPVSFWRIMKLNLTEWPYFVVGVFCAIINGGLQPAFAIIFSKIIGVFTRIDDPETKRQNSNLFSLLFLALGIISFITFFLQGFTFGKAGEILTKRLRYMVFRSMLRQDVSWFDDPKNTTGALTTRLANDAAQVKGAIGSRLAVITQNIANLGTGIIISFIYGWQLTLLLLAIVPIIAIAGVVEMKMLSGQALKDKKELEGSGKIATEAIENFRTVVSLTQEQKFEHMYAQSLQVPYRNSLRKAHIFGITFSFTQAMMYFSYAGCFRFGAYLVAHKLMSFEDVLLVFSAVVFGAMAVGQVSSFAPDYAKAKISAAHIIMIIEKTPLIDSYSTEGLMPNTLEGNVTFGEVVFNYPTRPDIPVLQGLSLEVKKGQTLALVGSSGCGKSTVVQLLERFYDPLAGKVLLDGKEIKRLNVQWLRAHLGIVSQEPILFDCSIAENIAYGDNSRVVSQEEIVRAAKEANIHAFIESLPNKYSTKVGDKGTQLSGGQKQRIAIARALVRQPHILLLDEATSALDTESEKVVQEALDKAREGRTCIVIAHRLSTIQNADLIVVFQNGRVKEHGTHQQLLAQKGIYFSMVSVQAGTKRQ

## COc1ccc2cc3[n+](cc2c1OC)CCc1cc2c(cc1-3)OCO2 [berberine]
[1]
  transport of nimodipine across the BBB: increased the transport of nimodipine across the BBB

## NCCN(CCN)/[N+]([O-])=N/O [DETA/NONOate, (Z)-1-[N-(2-aminoethyl)-N-(2-ammonioethyl)amino]diazen-1-ium-1,2-diolate]
[2]
  cell proliferation and migration in the subventricular zone and the dentate gyrus: significantly increases cell proliferation and migration

## COCCOC(=O)C1=C(C)NC(C)=C(C(=O)OC(C)C)C1c1cccc([N+](=O)[O-])c1 (stereo not drawn) [Nimodipine]
[3]
  bioavailability after oral administration, average: approximately 25%
other
  solubility in water: practically insoluble in water

## C=CC[C@@H]1/C=C(\C)C[C@H](C)C[C@H](OC)[C@H]2O[C@@](O)(C(=O)C(=O)N3CCCC[C@H]3C(=O)O[C@H](/C(C)=C/[C@@H]3CC[C@@H](O)[C@H](OC)C3)[C@H](C)[C@@H](O)CC1=O)[C@H](C)C[C@@H]2OC [Tacrolimus]
[4]
  ileum and colonic absorption efficiency: half that observed for the small intestine
[5]
  effect on CYP activities: little detectable effect
[6]
  incidence of diabetes: 20 % of all patients
[7]
  cortical brain damage: reducing cortical brain damage
  reductions of cerebral metabolic rate of oxygen and oxygen extraction function: significantly attenuated
[8]
  infarction area: dose-dependently reduced the infarction area
[9]
  neuroprotective effect: long-lasting neuroprotective effects
[10]
  reduction of hippocampal damage: more than 80%
[11]; 1 mg/kg iv alone, 1, 2 or 3 h after occlusion
  neuroprotective effect, drug alone: neuroprotective effects when administered alone up to 1 h following occlusion
[11]; tacrolimus 1 mg/kg plus same dose of rt-PA iv
  brain damage, combination with rt-PA: significant reduction in brain damage was observed at up to 2 h following occlusion
[12]
  affinity for PgP: ~0.1 µM
[13]
  ischemic brain damage: significant reduction in ischemic brain damage
[14]
  reduction of ischemic damage in the rat cortex: up to 70%
[15]
  blood concentrations: significantly higher
  concentration in brain tissue, fold higher: 10 fold
  total clearance, reduction: 66%
[16]
  peptidyl-prolyl isomerase activity: blocked the increase in peptidyl-prolyl isomerase activity
  reduction of infarct size: 53%
[17]
  increases in APP holoprotein and mRNA caused by PGE2 treatment: completely inhibited
[18]
  increase of axonal growth: 20%

## O=C(O)[C@H]1O[C@@H](Oc2cc3oc(-c4ccccc4)cc(=O)c3c(O)c2O)[C@H](O)[C@@H](O)[C@@H]1O [baicalin]
[1]
  transport of nimodipine across the BBB: increased the transport of nimodipine across the BBB

## CC[C@H](C)C(=O)O[C@H]1CCC=C2C=C[C@H](C)[C@H](CC[C@@H]3C[C@@H](O)CC(=O)O3)[C@H]21 [Mevastatin]
[19]
  cerebral blood flow (CBF): augmented absolute CBF
  eNOS expression: increase in eNOS mRNA and protein levels
